Measured values from EP0114002B1, “Benzothiopyrano(4,3,2,-cd)indazoles, their pharmaceutical compositions and methods for their production” (WARNER-LAMBERT COMPANY, priority 1983, dated 1984).
Structures can show the parent of a compound that is named as a salt. Where two headings read alike, the source gives them in different places.

How the values were obtained:
L1210 cells = test: L1210 murine leukemia cell growth inhibition in vitro; type: cell-based; settings: Mus musculus, 72 h
Method: Another test protocol uses L1210 cells, a murine leukemia cell line, grown in RPMI 1640 supplemented with 5% fetal bovine serum and gentamicin ([…]). Drug dilutions are prepared in the appropriate solvent and 20 µl of each dilution are added to 24-well Linbro tissue culture plates, followed by the addition of 2.0 ml of cell suspension containing 3 x 10^4 cells per ml. Solvent and medium controls are included in each test. After incubation at 37°C forthree days in 5% C02, the contents of each well are removed and the cells counted in a ZBI Coulter counter. Percent growth are calculated relative to the controls and the levels of drug activity are expressed as ID50 in moles per liter.

[1] = test system: lymphocytic leukemia P388; test: in vivo lymphocytic leukemia P388 test; parameters: species or system mice; settings: Mus musculus, P388, ip, 120 h, read-out: P388 in vivo T/C × 100; for response vs control in vivo at 25 mg/kg: Dose 25.00 mg/kg intraperitoneally once daily for five days; for response vs control in vivo at 6.25 mg/kg: Dose 6.25 mg/kg intraperitoneally once daily for five days; for response vs control in vivo at 12.5 mg/kg: Dose 12.50 mg/kg intraperitoneally once daily for five days; for response vs control in vivo at 100 mg/kg: Dose 100.00 mg/kg intraperitoneally once daily for five days; for response vs control in vivo at 3.12 mg/kg: Dose 3.12 mg/kg intraperitoneally once daily for five days; for response vs control in vivo at 50 mg/kg: Dose 50.00 mg/kg intraperitoneally once daily for five days
Method: Another test protocol is the in vivo lymphocytic leukemia P388 test. The animals used are either male or female CD2F, mice. There are six or seven animals per test group. The tumor transplant is by intraperitoneal injection of dilute ascitic fluid containing cells of lymphocytic leukemia P388. The test compounds are administered intraperitoneally once daily for five consecutive days at various doses following tumor inoculation. The animals are weighed and survivors are recorded on a regular basis for 30 days. A compound is designated "toxic" if, at a given dose, all animals died prior to four days after the first injection of drug. A ratio of survival time for treated (T)/control (C) animals is calculated. A criterion for efficacy is a ratio T/C times 100 greater than or equal to 125. See Cancer Chemotherapy Reports, Part 3, 3; 1 (1972) for a comprehensive discussion of the protocol.

HCT-8 cells = test: in vitro proliferating human colon adenocarcinoma (HCA) cell screen; type: cell-based
Method: One test protocol is the in vitro proliferating human colon adenocarcinoma (HCA) cell screen. In this test, HCT-8 cells (HCA cell line received from Yale University) are trypsinized using trypsin-EDTA. A single cell suspension is achieved by passing the cells through a 26 gauge needle with a 20 cc syringe. A cell suspension is prepared using RPMI 1640 + 10% FCS + 50) g/ml gentamicin sulfate with a cell concentration of approximately 30,000 cells/ml. The cell suspension is dispensed in Linbro 24-well plates; 1 ml/well. The plates are incubated for approximately 48 hours at 37°C in a 5% C02 atmosphere. At this time test compounds are added in the appropriate concentration. Five µl of the 200 µg/ml stock solution is added to each well in primary test. Ten µl of the appropirate dilution is added to each well for a titration test. The plates are re-incubated an additional 60 to 65 hours at 37°C in a 5% C02 atmosphere. The cells are lysed using a mix of cationic surfactant, glacial acetic acid, and sodium chloride. Two ml of the lysed cell suspension from each well is added to 8 ml of diluent. The number of nuclei is determined using a Coulter counter (ZBI model), and a percent growth for each drug concentration is calculated. From this, an ID50 molar concentration of a compound (that results in 50% inhibition of growth) is determined.

Bacillus subtilis 04555 = test: in vitro antibacterial/antifungal (ABF) agar-disk diffusion test; type: cell-based; settings: 0.1 mg/ml, read-out: ABF Zone Diameter (cont. in mg/ml) B. Sub-tilis
Method: (§1) Still another test protocol is the in vitro antibacterial/antifungal (ABF) test. Compounds are tested for antimicrobial activity in an agar-disk diffusion assay, a standard microbiological technique for testing antibiotics'. After incubation of each culture with a test compound, a zone of inhibition is determined. The zone diameter (mm) of active compounds ranges from a minimum of 13.5 mm to as high as 60 mm, with a greater diameter reflecting higher activity. For convenience, values are reported for two gram-negative bacteria (Aerobacter aerogenes 0126 and Escherichia coli 04863), two gram-positive bacteria (Bacillus subtilis 04555 and Streptococcus faecalis 05045 utilizing AM-09 medium), and one mycelial fungus (Penicillium avellaneum M2988).

[2] = test system: Penicillium avellaneum M2988; test: as above; type: cell-based; settings: Hamigera avellanea, 3 mg/ml, read-out: ABF Zone Diameter (cont. in mg/ml) P. Avell-aneum
Method: as §1

[3] = test system: Streptococcus faecalis 05045; test: as above; type: cell-based; settings: Enterococcus faecalis, AM-09 medium, 3 mg/ml, read-out: ABF Zone Diameter (cont. in mg/ml) S. Fae-calis
Method: as §1

[4] = test system: Aerobacter aerogenes 0126; test: as above; type: cell-based; settings: Klebsiella aerogenes, 0.1 mg/ml, read-out: ABF Zone Diameter (cont. in mg/ml) A. Aero-genes
Method: as §1

Escherichia coli 04863 = test: as above; type: cell-based; settings: 0.1 mg/ml, read-out: ABF Zone Diameter (cont. in mg/ml) E. Coli
Method: as §1

[5] = Table 2, three days incubation, read-out: L1210 in vitro IC50
[6] = Table 2, 60 to 65 hours with compound, read-out: HCA—3 in vitro IC50
[7] = Table 1, three days incubation, 50% inhibition of growth, read-out: L1210 in vitro ID50
[8] = Table 1, 60 to 65 hours with compound, 50% inhibition of growth, read-out: HCA—3 in vitro ID50

| IC50 (L1210 cells; [7]) [nM] | IC50 (HCT-8 cells; [8]) [nM] | SMILES | IC50 (L1210 cells; [5]) [nM] | response vs control in vivo at 25 mg/kg [1] [%] | IC50 (HCT-8 cells; [6]) [nM] | response vs control in vivo at 12.5 mg/kg [1] [%] | other results |
| --- | --- | --- | --- | --- | --- | --- | --- |
| 190 | 210 | CN(C)CCCn1nc2c3c(c([N+](=O)[O-])ccc31)Sc1ccccc1-2 [CH2CH2CH2N(CH3)2 / NO2, N,N dimethyl-5-nitro-2H[1]benzothiopyrano[4,3,2-cd]indazole-2-propanamine] | – | 121 | – | – | response vs control in vivo at 100 mg/kg [1]: 141% |
| 290 | 880 | CCN(CC)CCn1nc2c3c(c(NCCCN)ccc31)Sc1ccccc1-2 [CH2CH2N(C2H5)2 / NHCH2CH2CH2NH2] | – | 169 | – | 154 | response vs control in vivo at 3.12 mg/kg [1]: 132%; response vs control in vivo at 6.25 mg/kg [1]: 142% |
| 190 | 380 | CCN(CC)CCn1nc2c3c(c(NC(=O)CCl)ccc31)Sc1ccccc1-2 [CH2CH2N(C2H5)2 / NHCOCH2Cl, 2-Chloro-N-[2-[2-(diethylamino)ethyl]-2H[1]benzothiopyrano[4,3,2-cd]indazol-5-yl]acetamide] | – | 124 | – | – | response vs control in vivo at 50 mg/kg [1]: 165% |
| 24 | 140 | CCNCCn1nc2c3c(c([N+](=O)[O-])ccc31)Sc1ccccc1-2 [CH2CH2NHC2H5 / NO2 / C17H16N4O2S·HCl] | – | – | – | 187 | – |
| 71 | 300 | CCNCCn1nc2c3c(c(N)ccc31)Sc1ccccc1-2 [CH2CH2NHC2H5 / NO2 / C17H18N4S·2HCl] | – | – | – | 188 | – |

Continued, compound first:

| SMILES | IC50 (L1210 cells; [7]) [nM] | IC50 (HCT-8 cells; [8]) [nM] | IC50 (L1210 cells; [5]) [nM] | response vs control in vivo at 25 mg/kg [1] [%] | IC50 (HCT-8 cells; [6]) [nM] | response vs control in vivo at 12.5 mg/kg [1] [%] | other results |
| --- | --- | --- | --- | --- | --- | --- | --- |
| CCN(CC)CCn1nc2c3c(c(NCCNCCO)ccc31)Sc1ccc(OC)cc1-2 [2-[[2-[[2-(2-(Diethylamino)ethyl]-9-methoxy-2H[1]benzothiopyrano[4,3,2-cd]indazol-5-yl]amino]ethyl]amino]ethanol] | – | – | 200 | 177 | 230 | – | – |
| CN(C)CCCn1nc2c3c(c(NCCN)ccc31)Sc1ccccc1-2 [(CH2)3N(CH3)2 / NHCH2CH2NH2, N-[2-[3-(dimethylamino)propyl]-2H[1]benzothiopyrano[4,3,2-cd]indazol-5-yl]-1,2-ethanediamine] | 29 | 130 | – | – | – | 298 | response vs control in vivo at 6.25 mg/kg [1]: 185% |
| CCN(CC)CCn1nc2c3c(c(N)ccc31)Sc1ccc(O)cc1-2 [CH2CH2N(C2H5)2 / NH2 / 9-OH, 5-Amino-2-[2-(diethylamino)ethyl]-2H[1]benzothiopyrano[4,3,2-cd]indazol-9-ol] | – | – | 12 | – | 28 | – | response vs control in vivo at 6.25 mg/kg [1]: 238% |
| CCN(CC)CCn1nc2c3c(c(NCCN)ccc31)Sc1ccc(OC)cc1-2 [CH2CH2N(C2H5)2 / NHCH2CH2NH2 / 9-OCH3] | – | – | 210 | – | 290 | 177 | – |
| CCN(CC)CCn1nc2c3c(c([N+](=O)[O-])ccc31)Sc1c(OC)ccc(OC)c1-2 [CH2CH2N(C2H5)2 / NO2 / 7,10-(OCH3)2, N,N-Diethyl-7,10-dimethoxy-5-nitro-2H[1]benzothiopyrano[4,3,2-cd]indazol-2-ethanamine] | – | – | 1300 | – | 500 | – | – |
| CCN(CC)CCn1nc2c3c(c([N+](=O)[O-])ccc31)Sc1c(O)ccc(O)c1-2 [CH2CH2N(C2H5)2 / NO2 / 7,10-(OH)2] | – | – | 1700 | – | – | – | – |
| CCN(CC)CCn1nc2c3c(c([N+](=O)[O-])ccc31)Sc1c(OC)ccc(O)c1-2 [CH2CH2N(C2H5)2 / NO2 / 7-OCH3, 10-OH, 2-[2-(diethylamino)-ethyl]-7-methoxy-5-nitro-2H[1]benzothiopyrano[4,3,2-cd]indazol-10-ol] | – | – | 1000 | – | 420 | – | – |
| CCN(CC)CCn1nc2c3c(c(NCCN4CCOC4=O)ccc31)Sc1ccc(OC)cc1-2 [CH2CH2N(C2H5)2 / [drawing] / 9-OCH3, 3-[2-[[2-[2-(Diethylamino)ethyl]-9-methoxy-2H[1]benzothiopyrano[4,3,2-cd]indazol-5-yl]amino]ethyl]-2-oxazolidinone] | – | – | – | – | 1000 | – | response vs control in vivo at 100 mg/kg [1]: 220% |
| CCN(CC)CCn1nc2c3c(c(NCCN4CCOC4=O)ccc31)Sc1ccc(O)cc1-2 [CH2CH2N(C2H5)2 / [drawing] / 9-OH, 3-[2-[[2-[2-(diethylamino)ethyl]-9-hydroxy-2H[1]benzothiopyrano[4,3,2-cd]indazol-5-yl]amino]ethyl]-2-oxazolidinone] | – | – | 5.5 | – | 24 | 175 | – |
| NCCn1nc2c3c(c([N+](=O)[O-])ccc31)Sc1ccccc1-2 [CH2CH2NH2 / NO2 / 199—203, 5-Nitro-2H[1]benzothiopyrano[4,3,2-cd]indazole-2-ethanamine] | – | 200 | – | – | – | – | zone of inhibition at 100 µg/mL (Bacillus subtilis 04555): 17 mm; zone of inhibition at 3000 µg/mL [2]: 0 mm; zone of inhibition at 3000 µg/mL [3]: 0 mm; zone of inhibition at 100 µg/mL [4]: 18 mm; zone of inhibition at 100 µg/mL (Escherichia coli 04863): 15 mm |
| NCCn1nc2c3c(c([N+](=O)[O-])ccc31)Sc1ccccc1-2 [CH2CH2NH2 / NO2 / >300] | – | – | – | 187 | – | 136 | – |
| CCN(CC)CCn1nc2c3c(c(N)ccc31)Sc1ccc(OC)cc1-2 [CH2CH2NHCH2CH2OH / NH2 / 9-OCH3, 5-Amino-N,N-diethyl-9-methoxy-2H[1]benzothiopyrano[4,3,2-cd]indazole-2-ethanamine] | – | – | 1600 | – | – | – | response vs control in vivo at 50 mg/kg [1]: 154% |
| CCN(CC)CCNc1ccc2c3c(nn2CCNCCO)-c2ccccc2Sc13 [CH2CH2NHCH2CH2OH / NHCH2CH2N(C2H5)2, 2-[[2-[5-[[2-(Diethylamino)ethyl]amino]-2H[1]benzothiopyrano[4,3,2-cd]indazol-2-yl]ethyl]amino]ethanol] | 240 | 450 | – | 147 | – | 135 | response vs control in vivo at 3.12 mg/kg [1]: 134%; response vs control in vivo at 6.25 mg/kg [1]: 137% |
| CCN(CC)CCn1nc2c3c(c([N+](=O)[O-])ccc31)Sc1ccc(OC)cc1-2 [CH2CH2NHCH2CH2OH / NO2 / C20H22N4O3S, N,N-Diethyl-9-methoxy-5-nitro-2H[1]benzothiopyrano[4,3,2-cd]indazole-2-ethanamine] | – | – | 640 | 209 | – | 142 | – |
